B1: Cs_UGT_C30: Camellia sinensis glycosyltransferase, amino acid sequence SEQ ID NO: 2, expressed His-tagged in E. coli (protein, listed as Camellia sinensis)
chain: MGSRKQPHAVCVPFPAQGHINPMMQLAKLLHSRGFYITFVNTEFNHRRLLQSKGPEFLKGCADFQFESIPDGLPPSDRDATQDPPTLCIAMRDNCLDPFRVLLKKLNNNNNSIASRQVPGVTCVVSDGAMNFAMKAAEEAGIPEVQFWTASACGFMGYLHYPQLVQRGIFPFKDESFQSDGSLDTTIDWIPGMRNIRLKDMPSFIRTTDPNDILFNYLSEEVQNCLKASAIIFNTFDTLEHQVLQAIASKFHNIYTIGPLSLLSKQVIDGEFKSLNSSLWKEDTKCLQWLDTKEPNSVVYVNYGSITVMTDQHLKEFAWGLANSKHPFLWIVRPDIVMGDSAILPEHFVEETKDRGLLVSWCPQEQVLSHPSIGVFLTHCGWNSTLESICGGVPIICWPFFAEQQTNCRYACTEWGIGMEVNHDVKRNEIVALINEMLEGDKGKQMRKKALKLKKEAEEATDVGGLSYNNFDRLIKEALHYCEQY
modifications: His tag
B2: Cs_UGT85like_C1: Camellia sinensis glycosyltransferase, amino acid sequence SEQ ID NO: 4, expressed His-tagged in E. coli (protein, listed as Camellia sinensis)
chain: MAKLHFFFFPVMAQGHMIPTLDMAKLFASHGVKATIITTPLNAPYFTRSIQRTHHSISVLTLKFPAVEAGLVEGCESVDQIPSPDMLPNFLKATTMLQDPLERLLQDSRPDCLVADMFFPWATHVAAKFNIPRLVFHGTGFFTLCASENLRLYMPQASVSSDDEPFLVPNLPHKIMLTRSQLPENERCDTETGLSTMLKQVKETELTSYGVIVNSFYELEPDYADYYRNVLGRRAWHIGPVSLCNREVEDKAQRGKESAIDEVECLKWLNSKKPNSVIYVCFGSLGDFTASQLFELAMGLEASGQQFIWVVRKGKIEEDGDEKRLPEEFEERMKDKGLIIRGWAPQVLILDHESIGGFVTHCGWNSILEGVCAGVPMVTWPRFAEQFYNEKLVTEVLRIGVGVGARQWQIGAGSDCIKGETIAKAVKRVMEAGEEAEGMRTRARAAKDMAKKAVEEGGSSYSDLNALIQEMSS
modifications: His tag

Test system: not listed separately
Assay: Hexenol glycosylation activity of recombinant UGT enzymes (enzyme reaction with UDP-glucose, LC-MS analysis of product)
Assay type: biochemical
Conditions: 2 mM UDP-glucose, […] sugar acceptor substrate, pH 7.5, 30° C. for 1 hour; product detected by LC-MS against reference standard
Description: Standard enzyme reaction conditions are as follows. […] The enzyme reaction solution (5 μl) was analyzed by LC-MS under the following conditions. LC Conditions • Column: CAPCELL PAK C18-UG120 (2.0 mm I.D.×150 mm) • Mobile phase: A: […] (m/z 261, 297, 307) Since green leaf volatiles are found in a wide range of land plants, a search was conducted for UGTs causing glycosylation of green leaf volatiles derived from other plant lines on the basis of homology with the sequence of Camellia sinensis Cs_UGT_C30.

glycosylation activity on cis-3-hexenol (generation of cis-3-hexenyl monoglucoside) | Molecule
glycosylation activity on cis-3-hexenol | B1
glycosylation activity on cis-3-hexenol | B2

Test system: CsUGTC30
Assay: Specificity of CsUGTC30 for sugar acceptors (relative activity of transglucosylation)
Assay type: biochemical, Camellia sinensis
Conditions: UDP-glucose as donor; 30 minutes at 30° C.; activity on geraniol is set to 100% (FIG. 8)
Source text: Standard enzyme reaction conditions are as follows.
Next, to clarify the substrate specificity of CsUGTC30, geraniol, linalool, eugenol, benzyl alcohol, 2-phenylethanol, quercetin and cyanidin were each used as a substrate to determine the relative activity of transglucosylation with the above enzyme and under the above enzyme reaction conditions.

Molecule | relative transglucosylation activity of CsUGTC30 on the substrate (sugar acceptor)
OCCc1ccccc1 [2-phenylethanol] | transglycosylation activity
OCc1ccccc1 [benzyl alcohol] | second highest activity
C=CCc1ccc(O)c(OC)c1 [eugenol] | second highest activity
CC(C)=CCC/C(C)=C/CO [geraniol] | highest activity
CC/C=C\CCO [hexenol, cis-3-hexen-1-ol] | at the same level
C=CC(C)(O)CCC=C(C)C (stereo not drawn) [linalool] | transglycosylation activity
O=c1c(O)c(-c2ccc(O)c(O)c2)oc2cc(O)cc(O)c12 [quercetin] | no transglycosylation activity

From patent US9957539B2, “Method for using hexenol glycosyl transferase” (SUNTORY HOLDINGS LIMITED, priority 2013, dated 2018)
